Measurements: ChEMBL document CHEMBL1124311, “Synthesis and antiallergy activity of 4-(diarylhydroxymethyl)-1-[3-(aryloxy)propyl]piperidines and structurally related compounds” (J Med Chem, 1989)

How the values were obtained:
Format in all cases: functional, organism-based
Rattus norvegicus [1] = test: Oral antiallergy activity in the passive foot anaphylaxis (PFA) model of rat, at a dose of 10 (mg/kg); Activity between positive and negative control groups
Rattus norvegicus [2] = test: Oral antiallergy activity in the passive foot anaphylaxis (PFA) model of rat, at a dose of 3.16 (mg/kg); not significantly different from negative control group
Rattus norvegicus [3] = test: Oral antiallergy activity in the passive foot anaphylaxis (PFA) model of rat, at a dose of 10 (mg/kg); not significantly different from negative control group
Rattus norvegicus [4] = test: Oral antiallergy activity in the passive foot anaphylaxis (PFA) model of rat, at a dose of 10 (mg/kg); Activity equal to positive control group
Rattus norvegicus [5] = test: Oral antiallergy activity in the passive foot anaphylaxis (PFA) model of rat, at a dose of 3.16 (mg/kg); Activity between positive and negative control groups

SMILES	PFA (Rattus norvegicus [1])	PFA (Rattus norvegicus [3])	further results
O=C(c1ccccc1)c1ccc(OCCCN2CCC(C(O)(c3ccc(F)cc3)c3ccc(F)cc3)CC2)cc1	Activity between positive and negative control groups	–	PFA (Rattus norvegicus [2]): Activity between positive and negative control groups
OC(c1ccc(F)cc1)(c1ccc(F)cc1)C1CCN(CCCOc2ccc(Cl)cc2)CC1	–	Not significantly different from negative control group	–
OC(c1ccc(F)cc1)(c1ccc(F)cc1)C1CCN(CCCOc2ccccc2OCc2ccccc2)CC1	Activity between positive and negative control groups	–	–
COc1cc(C(C)=O)ccc1OCCCN1CCC(C(O)(c2ccc(F)c(F)c2)c2ccc(F)c(F)c2)CC1	–	Not significantly different from negative control group	–
COc1cc(C(C)=O)ccc1OCCCN1CCC(C(O)(c2ccccc2)C2CCCCC2)CC1 (configuration not stated)	–	Not significantly different from negative control group	–
COc1cc(C(C)=O)ccc1OCCCN1CCC(C(O)(c2ccc(C)cc2)c2ccc(C)cc2)CC1	–	Not significantly different from negative control group	–
COc1cc(C(C)=O)ccc1OCCCN1CCC(C(O)(c2cccc(F)c2)c2cccc(F)c2)CC1	–	Not significantly different from negative control group	–
COc1cc(C(C)=O)ccc1OCCCN1CCC(c2ccccc2)CC1	–	Not significantly different from negative control group	–
COc1cc(C(C)=O)ccc1OCCCN1CCC(C(c2ccccc2)c2ccccc2)CC1	–	–	PFA (Rattus norvegicus [4]): Activity equal to positive control group
COc1cc(C(C)=O)ccc1OCCCN1CCCC(C(O)(c2ccc(F)cc2)c2ccc(F)cc2)C1 (configuration not stated)	–	Not significantly different from negative control group	–
OC(c1ccc(F)cc1)(c1ccc(F)cc1)C1CCN(CCCOc2ccc(F)cc2)CC1	–	Not significantly different from negative control group	–
COc1cc(C(C)=O)ccc1OCCCN1CCC(C(O)(c2ccc(F)cc2)c2ccccn2)CC1 (configuration not stated)	–	–	PFA (Rattus norvegicus [5]): Activity between positive and negative control groups
COc1cccc(OC)c1OCCCN1CCC(C(O)(c2ccc(F)cc2)c2ccc(F)cc2)CC1	Activity between positive and negative control groups	–	PFA (Rattus norvegicus [2]): Activity between positive and negative control groups
O=C(CCCN1CCC(C(O)(c2ccc(F)cc2)c2ccc(F)cc2)CC1)c1ccccc1	–	Not significantly different from negative control group	–
COc1cc(C(C)=O)ccc1OCCCN1CCCCC1	–	Not significantly different from negative control group	–
OC(c1ccc(F)cc1)(c1ccc(F)cc1)C1CCN(CCCNc2ccccc2)CC1	Activity between positive and negative control groups	–	PFA (Rattus norvegicus [5]): Activity between positive and negative control groups
COc1cc(C(C)=O)ccc1OCCCN1CCC(C(OC)(c2ccccc2)c2ccccc2)CC1	–	–	PFA (Rattus norvegicus [5]): Activity between positive and negative control groups
OC(c1ccc(F)cc1)(c1ccc(F)cc1)C1CCN(CCCOc2ccc(-c3ccccc3)cc2)CC1	–	Not significantly different from negative control group	–
COC(=O)c1ccc(OCCCN2CCC(C(O)(c3ccccc3)c3ccccc3)CC2)cc1	–	Not significantly different from negative control group	–
OC(c1ccc(F)cc1)(c1ccc(F)cc1)C1CCN(CCCSc2ccccc2)CC1	Activity between positive and negative control groups	–	–

SMILES	PFA (Rattus norvegicus [1])	PFA (Rattus norvegicus [3])	further results
C[S+]([O-])c1ccc(OCCCN2CCC(C(O)(c3ccc(F)cc3)c3ccc(F)cc3)CC2)cc1 (configuration not stated)	Activity between positive and negative control groups	–	PFA (Rattus norvegicus [2]): Activity between positive and negative control groups
CCOC(=O)C(=O)Nc1ccc(OCCCN2CCC(C(O)(c3ccc(F)cc3)c3ccc(F)cc3)CC2)cc1	–	Not significantly different from negative control group	–
NS(=O)(=O)c1ccc(OCCCN2CCC(C(O)(c3ccc(F)cc3)c3ccc(F)cc3)CC2)cc1	Activity between positive and negative control groups	–	PFA (Rattus norvegicus [2]): Activity between positive and negative control groups
OC(CCCN1CCC(C(O)(c2ccc(F)cc2)c2ccc(F)cc2)CC1)c1ccccc1 (configuration not stated)	Activity between positive and negative control groups	–	PFA (Rattus norvegicus [5]): Activity between positive and negative control groups
COc1ccc(C(O)(c2ccc(OC)cc2)C2CCN(CCCOc3ccc(C(C)=O)cc3OC)CC2)cc1	–	Not significantly different from negative control group	–
O=S(=O)(CCCN1CCC(C(O)(c2ccc(F)cc2)c2ccc(F)cc2)CC1)c1ccccc1	–	Not significantly different from negative control group	–
COc1cc(C(C)=O)ccc1OCCCCCN1CCC(C(O)(c2ccc(F)cc2)c2ccc(F)cc2)CC1	Activity between positive and negative control groups	–	PFA (Rattus norvegicus [5]): Activity between positive and negative control groups
COc1cc(C(C)=O)ccc1OCCCN1CCC(C(O)(c2ccc(F)cc2)c2ccc(F)cc2)C1 (configuration not stated)	–	Not significantly different from negative control group	–
COc1cc(C(C)=O)ccc1OCCCN1CCN(Cc2ccccc2)CC1	–	Not significantly different from negative control group	–
COc1cc(C(C)=O)ccc1OCCCN1CCC(Cc2ccccc2)CC1	–	Not significantly different from negative control group	–
COc1cc(OCCCN2CCC(C(O)(c3ccc(F)cc3)c3ccc(F)cc3)CC2)ccc1C(C)=O	Activity between positive and negative control groups	–	–
COc1cc(C(C)=O)ccc1OCCCCCCN1CCC(C(O)(c2ccc(F)cc2)c2ccc(F)cc2)CC1	–	Not significantly different from negative control group	–
CC(=O)c1ccccc1OCCCN1CCC(C(O)(c2ccc(F)cc2)c2ccc(F)cc2)CC1	Activity between positive and negative control groups	–	PFA (Rattus norvegicus [2]): Activity between positive and negative control groups
COc1cc(C(C)=O)ccc1OCCCN1CCC(C(O)(c2ccc(Cl)cc2)c2ccc(Cl)cc2)CC1	–	Not significantly different from negative control group	–
COc1cc(C(C)=O)ccc1OCCCN1CCC(CC(O)(c2ccc(F)cc2)c2ccc(F)cc2)CC1	–	Not significantly different from negative control group	–
COc1cc(C(C)=O)ccc1OCCCN1CCC(C(C(N)=O)(c2ccccc2)c2ccccc2)CC1	–	Not significantly different from negative control group	–
CC(C)c1ccc(OCCCN2CCC(C(O)(c3ccc(F)cc3)c3ccc(F)cc3)CC2)cc1	Activity between positive and negative control groups	–	PFA (Rattus norvegicus [2]): Activity between positive and negative control groups
CCN(CCCOc1ccc(C(C)=O)cc1OC)CCCC(O)(c1ccc(F)cc1)c1ccc(F)cc1	–	Not significantly different from negative control group	–
OC(c1ccc(F)cc1)(c1ccc(F)cc1)C1CCN(CCCC2OCOC2c2ccccc2)CC1 (configuration not stated)	Activity between positive and negative control groups	–	–
COc1cc(C(C)=O)ccc1OCCCN1CCN(c2ccccc2)CC1	–	–	PFA (Rattus norvegicus [4]): Activity equal to positive control group

SMILES	PFA (Rattus norvegicus [1])	PFA (Rattus norvegicus [3])	further results
CC(C)(C)c1ccc(OCCCN2CCC(C(O)(c3ccc(F)cc3)c3ccc(F)cc3)CC2)cc1	–	Not significantly different from negative control group	–
COc1cc(C(C)=O)ccc1OCCCN1CCC(C(O)(Cc2ccc(F)cc2)c2ccc(F)cc2)CC1 (configuration not stated)	–	Not significantly different from negative control group	–
COc1cc(C(C)=O)ccc1OCCCN1CCC(C(=O)c2ccccc2)CC1	–	–	PFA (Rattus norvegicus [4]): Activity equal to positive control group
COc1cc(C(C)=O)ccc1OCCCN1CCC(C(O)(c2ccccc2)c2cccc(C(F)(F)F)c2)CC1 (configuration not stated)	–	Not significantly different from negative control group	–
COc1cc(C(C)=O)ccc1OCCN1CCC(C(O)(c2ccc(F)cc2)c2ccc(F)cc2)CC1	–	–	PFA (Rattus norvegicus [4]): Activity equal to positive control group
COc1cccc(OCCCN2CCC(C(O)(c3ccc(F)cc3)c3ccc(F)cc3)CC2)c1	Activity between positive and negative control groups	–	PFA (Rattus norvegicus [2]): Activity between positive and negative control groups
CCOC(=O)c1cccc(OCCCN2CCC(C(O)(c3ccc(F)cc3)c3ccc(F)cc3)CC2)c1	Activity between positive and negative control groups	–	PFA (Rattus norvegicus [2]): Activity between positive and negative control groups
COc1cc(C(C)=O)ccc1OCCCN1CCC(CC(O)(c2ccc(F)cc2)c2ccc(F)cc2)C1 (configuration not stated)	–	Not significantly different from negative control group	–
OC(c1ccccc1)(c1ccccc1)C1CCN(CCCOc2ccccc2)CC1	–	–	PFA (Rattus norvegicus [4]): Activity equal to positive control group
CN(CCCN1CCC(C(O)(c2ccc(F)cc2)c2ccc(F)cc2)CC1)c1ccccc1	Activity between positive and negative control groups	–	PFA (Rattus norvegicus [5]): Activity between positive and negative control groups
Cc1ccccc1OCCCN1CCC(C(O)(c2ccc(F)cc2)c2ccc(F)cc2)CC1	Activity between positive and negative control groups	–	–
COc1cc(C(C)=O)ccc1OCCCN1CCC(C(C#N)(c2ccccc2)c2ccccc2)CC1	–	Not significantly different from negative control group	–
COc1cc(C(C)=O)ccc1OCCCN1CCN(C(c2ccccc2)c2ccccc2)CC1	–	–	PFA (Rattus norvegicus [4]): Activity equal to positive control group
N#Cc1ccc(OCCCN2CCC(C(O)(c3ccc(F)cc3)c3ccc(F)cc3)CC2)cc1	–	Not significantly different from negative control group	–
COC(=O)c1ccc(OCCCCN2CCC(C(O)(c3ccc(F)cc3)c3ccc(F)cc3)CC2)cc1	Activity between positive and negative control groups	–	PFA (Rattus norvegicus [2]): Activity between positive and negative control groups
CC(=O)c1cccc(OCCCN2CCC(C(O)(c3ccc(F)cc3)c3ccc(F)cc3)CC2)c1	Activity between positive and negative control groups	–	PFA (Rattus norvegicus [2]): Activity between positive and negative control groups
COc1cc(C(C)=O)ccc1OCCCN1CCCC(CC(O)(c2ccc(F)cc2)c2ccc(F)cc2)C1 (configuration not stated)	–	Not significantly different from negative control group	–
COc1cc(C(C)=O)ccc1OCCCN1CCN(C(=O)c2ccccc2)CC1	–	Not significantly different from negative control group	–
